# In patent US20240400555A1 (Initial Therapeutics, Inc., priority 2023, published 2024):
# System: MV-4-11 cells
# Test: Cell Viability Assay in MV-4-11 Cells
# Type: cell-based
# Settings: Homo sapiens, MV4-11, 72 h
# Outline: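 Luminescent ATP read-out (CellTiter-Glo) after 72 h compound treatment of MV-4-11 leukaemia cells (7,000 per well, IMDM plus 10% FBS). Values expressed relative to DMSO control and derived by four-parameter non-linear regression.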
row,Structure (SMILES),IC50 [nM]
1,"Cn1cc(-c2ccc(C(=O)N(c3nccc4sc(-c5cccc(C(=O)Nc6ccccc6)c5)cc34)[C@@H]3CCCNC3)c(F)c2)nn1 [Example 540, 2-fluoro-4-(1-methyltriazol-4-yl)-N-[2-[3-(phenylcarbamoyl)phenyl]thieno[3,2-c]pyridin-4-yl]-N-[(3R)-3-piperidyl]benzamide]",470

# Same assay, conditions: Homo sapiens, MV4-11, 72 h, MV-4-11 cells, 72 h, Cell-Titer Glo; read-out: IC50
row,Structure (SMILES),IC50 [nM]
1,"Cc1nnc(-c2ccc(C(=O)N(c3nccc4scc(C)c34)[C@@H]3CCCNC3)cc2)s1 [Example 798, (R)-4-(5-methyl-1,3,4-thiadiazol-2-yl)-N-(3-methylthieno[3,2-c]pyridin-4-yl)-N-(piperidin-3-yl)benzamide]",82
2,"Cc1nc(Nc2ccc(C(=O)N(c3nccc4cccc(C)c34)[C@@H]3CCCNC3)c(F)c2)ncc1F [Example 754, (R)-2-fluoro-4-((5-fluoro-4-methylpyrimidin-2-yl)amino)-N-(8-methylisoquinolin-1-yl)-N-(piperidin-3-yl)benzamide]",340
3,"Cc1cccc2ccnc(N(C(=O)c3ccc(Nc4nccc(N5CCNC(=O)C5)n4)cc3F)[C@@H]3CCCNC3)c12 [Example 938, (R)-2-fluoro-N-(8-methylisoquinolin-1-yl)-4-((4-(3-oxopiperazin-1-yl)pyrimidin-2-yl)amino)-N-(piperidin-3-yl)benzamide]",290
4,"O=C(c1ccc(-n2nnc3cccnc32)cc1F)N(c1nccc2sc(-c3ccn(CCO)n3)cc12)[C@@H]1CCCNC1 [Example 418, (R)-4-(3H-[1,2,3]triazolo[4,5-b]pyridin-3-yl)-2-fluoro-N-(2-(1-(2-hydroxyethyl)-1H-pyrazol-3-yl)thieno[3,2-c]pyridin-4-yl)-N-(piperidin-3-yl)benzamide]",360
5,"Cc1csc2ccnc(N(C(=O)c3ccc(Nc4ncccn4)cc3F)[C@@H]3CCCNC3)c12 [Example 468, (R)-2-fluoro-N-(3-methylthieno[3,2-c]pyridin-4-yl)-N-(piperidin-3-yl)-4-(pyrimidin-2-ylamino)benzamide]",120
6,"Cn1cc(-c2ccc(C(=O)N(c3nccc4cccc(Cl)c34)[C@@H]3CCCNC3)cc2)nn1 [Example 800, (R)—N-(8-chloroisoquinolin-1-yl)-4-(1-methyl-1H-1,2,3-triazol-4-yl)-N-(piperidin-3-yl)benzamide]",170
7,"O=C(c1ccc(-n2nnc3cccnc32)cc1F)N(c1nccc2ccc(/C=C\CO)cc12)[C@@H]1CCCNC1 [Example 337, (R,Z)-4-(3H-[1,2,3]triazolo[4,5-b]pyridin-3-yl)-2-fluoro-N-(7-(3-hydroxyprop-1-en-1-yl)isoquinolin-1-yl)-N-(piperidin-3-yl)benzamide]",250
8,"CC(C)(O)c1ccc(-c2cc3c(N(C(=O)c4ccc(-n5nnc6cccnc65)cc4F)[C@@H]4CCCNC4)nccc3s2)cc1 [Example 585, (R)-4-(3H-[1,2,3]triazolo[4,5-b]pyridin-3-yl)-2-fluoro-N-(2-(4-(2-hydroxypropan-2-yl)phenyl)thieno[3,2-c]pyridin-4-yl)-N-(piperidin-3-yl)benzamide]",440
9,"CCc1nnc(-c2ccc(C(=O)N(c3nccc4cc(C)cc(C)c34)[C@@H]3CCCNC3)nc2)s1 [Example 671, (R)—N-(6,8-dimethylisoquinolin-1-yl)-5-(5-ethyl-1,3,4-thiadiazol-2-yl)-N-(piperidin-3-yl)picolinamide]",130
10,"Cn1cc(-c2ccc(C(=O)N(c3nccc4sc(-c5ccsc5)cc34)[C@@H]3CCCNC3)c(F)c2)nn1 [Example 511, 2-fluoro-4-(1-methyltriazol-4-yl)-N-[(3R)-3-piperidyl]-N-[2-(3-thienyl)thieno[3,2-c]pyridin-4-yl]benzamide]",250
11,"Cc1cccc2ccnc(N(C(=O)c3cccc(C#CCCN)c3)[C@@H]3CCCNC3)c12 [Example 515, (R)-3-(4-aminobut-1-yn-1-yl)-N-(8-methylisoquinolin-1-yl)-N-(piperidin-3-yl)benzamide]",2100
12,"O=C(c1ccc(-n2nnc3cccnc32)cc1F)N(c1nccc2sc(-c3ccc(O)cc3)cc12)[C@@H]1CCCNC1 [Example 377, (R)-4-(3H-[1,2,3]triazolo[4,5-b]pyridin-3-yl)-2-fluoro-N-(2-(4-hydroxyphenyl)thieno[3,2-c]pyridin-4-yl)-N-(piperidin-3-yl)benzamide]",1300

# Now from value to compound:
row,IC50 [nM],Structure (SMILES)
1,4600,"Cn1cc(-c2ccc(C(=O)N(c3nccc4sc(Br)cc34)[C@@H]3CCCNC3)cc2O)cn1 [Example 475, N-(2-bromothieno[3,2-c]pyridin-4-yl)-3-hydroxy-4-(1-methylpyrazol-4-yl)-N-[(3R)-3-piperidyl] benzamide]"
2,3200,"CCc1nnc(-c2ccc(C(=O)N(c3nccc4c(C)csc34)[C@@H]3CCCNC3)nc2)s1 [Example 669, 5-(5-ethyl-1,3,4-thiadiazol-2-yl)-N-(3-methylthieno[2,3-c]pyridin-7-yl)-N-[(3R)-3-piperidyl]pyridine-2-carboxamide]"
3,780,"Cc1cccc2ccnc(N(C(=O)c3ccc(Nc4nccc(CO)n4)cc3F)[C@@H]3CCCNC3)c12 [Example 321, (R)-2-fluoro-4-((4-(hydroxymethyl)pyrimidin-2-yl)amino)-N-(8-methylisoquinolin-1-yl)-N-(piperidin-3-yl)benzamide]"
4,470,"Cc1nnc(-c2ccc(C(=O)N(c3nccc4cc(Cl)cc(C)c34)[C@@H]3CCCNC3)cc2C)s1 [Example 707, (R)—N-(6-chloro-8-methylisoquinolin-1-yl)-3-methyl-4-(5-methyl-1,3,4-thiadiazol-2-yl)-N-(piperidin-3-yl)benzamide]"
5,360,"Cc1cccc2ccnc(N(C(=O)c3ccc(Nc4nccc(N5CCOCC5CN(C)C)n4)cc3F)[C@@H]3CCCNC3)c12 (stereo partly drawn) [Example 956, 4-(4-(3-((dimethylamino)methyl)morpholino)pyrimidin-2-ylamino)-2-fluoro-N-(8-methylisoquinolin-1-yl)-N—((R)-piperidin-3-yl)benzamide]"
6,280,"Cc1c(-c2ccc(C(=O)N(c3nccc4sc(-c5ccc(C(N)=O)cc5)cc34)[C@@H]3CCCNC3)c(F)c2)cnn1C [Example 612, (R)—N-(2-(4-carbamoylphenyl)thieno[3,2-c]pyridin-4-yl)-4-(1,5-dimethyl-1H-pyrazol-4-yl)-2-fluoro-N-(piperidin-3-yl)benzamide]"
7,250,"O=C(c1ccc(-n2nnc3cccnc32)cc1F)N(c1nccc2cc(-c3cccnc3)ccc12)[C@@H]1CCCNC1 [Example 367, (R)-4-(3H-[1,2,3]triazolo[4,5-b]pyridin-3-yl)-2-fluoro-N-(piperidin-3-yl)-N-(6-(pyridin-3-yl)isoquinolin-1-yl)benzamide]"
8,240,"O=C(c1ccc(-n2nnc3cccnc32)cc1F)N(c1nccc2sc(-c3ccc(CO)cc3)cc12)[C@@H]1CCCNC1 [Example 599, (R)-4-(3H-[1,2,3]triazolo[4,5-b]pyridin-3-yl)-2-fluoro-N-(2-(4-(hydroxymethyl)phenyl)thieno[3,2-c]pyridin-4-yl)-N-(piperidin-3-yl)benzamide]"
9,240,"Cc1cccc2ccnc(N(C(=O)c3ccc(-c4nnc(C5CC5)s4)cc3)[C@@H]3CCCNC3)c12 [Example 790, (R)-4-(5-cyclopropyl-1,3,4-thiadiazol-2-yl)-N-(8-methylisoquinolin-1-yl)-N-(piperidin-3-yl) benzamide]"
10,210,"Cc1cccc2ccnc(N(C(=O)c3ccc(C#N)c(-c4ccc(-c5cccnc5)cc4)c3)[C@@H]3CCCNC3)c12 [Example 328, 4-cyano-N-(8-methyl-1-isoquinolyl)-N-[(3R)-3-piperidyl]-3-[4-(3-pyridyl)phenyl]benzamide]"
11,170,"CCc1nc(Nc2ccc(C(=O)N(c3nccc4cccc(C)c34)[C@@H]3CCCNC3)c(F)c2)ncc1F [Example 753, (R)-4-((4-ethyl-5-fluoropyrimidin-2-yl)amino)-2-fluoro-N-(8-methylisoquinolin-1-yl)-N-(piperidin-3-yl)benzamide]"
12,75,"Cn1ccc2ccnc(N(C(=O)c3ccc(Nc4ncccn4)cc3F)[C@@H]3CCCNC3)c21 [Example 926, (R)-2-fluoro-N-(1-methyl-1H-pyrrolo[2,3-c]pyridin-7-yl)-N-(piperidin-3-yl)-4-(pyrimidin-2-ylamino)benzamide]"
13,46,"Cc1cccc2ccnc(N(C(=O)c3ccc(Nc4nccc(NCc5cnn(C)c5)n4)cc3F)[C@@H]3CCCNC3)c12 [Example 694, (R)-2-fluoro-4-((4-(((1-methyl-1H-pyrazol-4-yl)methyl)amino)pyrimidin-2-yl)amino)-N-(8-methylisoquinolin-1-yl)-N-(piperidin-3-yl)benzamide]"
14,39,"Cc1cc(C)c2c(N(C(=O)c3ccc(-c4nnc(C)s4)nc3)[C@@H]3CCCNC3)nccc2c1 [Example 648, (R)—N-(6,8-dimethylisoquinolin-1-yl)-6-(5-methyl-1,3,4-thiadiazol-2-yl)-N-(piperidin-3-yl)nicotinamide]"
15,38,"Cc1cccc2ccnc(N(C(=O)c3ccc(Nc4nccc(CN5CCCC5)n4)cc3F)[C@@H]3CCCNC3)c12 [Example 961, (R)-2-fluoro-N-(8-methylisoquinolin-1-yl)-N-(piperidin-3-yl)-4-((4-(pyrrolidin-1-ylmethyl)pyrimidin-2-yl)amino)benzamide]"
16,32,"Cc1cccc2ccnc(N(C(=O)c3ccc(Nc4nccc(-c5cccnc5)n4)cc3F)[C@@H]3CCCNC3)c12 [Example 727, (R)-2-fluoro-N-(8-methylisoquinolin-1-yl)-N-(piperidin-3-yl)-4-((4-(pyridin-3-yl)pyrimidin-2-yl)amino)benzamide]"
17,25,"COc1cc(-n2nnc3cccnc32)ccc1C(=O)N(c1nccc2cccc(C)c12)[C@@H]1CCCNC1 [Example 308, (R)-4-(3H-[1,2,3]triazolo[4,5-b]pyridin-3-yl)-2-methoxy-N-(8-methylisoquinolin-1-yl)-N-(piperidin-3-yl)benzamide]"
18,9.9,"Cc1cc(F)cc2ccnc(N(C(=O)c3ccc(-c4cn(C)nn4)cc3F)[C@@H]3CCCNC3)c12 [Example 474, (R)-2-fluoro-N-(6-fluoro-8-methylisoquinolin-1-yl)-4-(1-methyl-1H-1,2,3-triazol-4-yl)-N-(piperidin-3-yl)benzamide]"
